Where a SMILES comes first, the peptide text is derived from it. The star is where a group is joined. Cbz = O=C(OCc1ccccc1)*
Experiments:
786-0 cells = assay: Sunitinib dose-response proliferation assay; format: cell-based; details: Homo sapiens
Procedure: (§1) AR expression was also assessed in other RCC cell lines (FIG. 1E).

786-OAR cells = assay: Sunitinib dose-response proliferation assay, AR-overexpressing cells; format: cell-based; details: Homo sapiens; 786-OAR (786-0 overexpressing ARwt)
Procedure: as §1

[1] = tested on: AR+ RCC cell lines (786-0R, UMRC2, Caki2); assay: Crystal violet cell viability assay, AR+ RCC cell lines; format: cell-based, human
Procedure: as §1

[2] = tested on: AR targeted genes (KLK2, KLK4, ZBTB16, MYC); assay: q-PCR of AR targeted genes after sunitinib; format: cell-based, human; details: 786-0R and UMRC2 cells, sunitinib treatment
Procedure: RNA was extracted in accordance with manufacturer's protocol (miRNeasy; Qiagen), and RNA sequencing was performed as previously described (25). In brief, RNA illumine sequencing reads were de-multiplex, aligned against human genome (hg19), and results aligned to BAM formatted sequence alignment map via cufflinks program. Differential expressed transcripts were identified between 786-0 and 786-0R samples, and ranked based on the square root of the sum of squares for the log 2 fold change. For qRT-PCR analysis, gene expression assessment on AR target genes was performed using the Prime PCR array (Bio-Rad) according to manufacturer's protocol. AR primer used is forward primer; 5-[…]-3 (SEQ ID NO:1) and reverse primer; 5-[…]-3 (SEQ ID NO:2). In brief, the denaturation step was carried out at 95° C. for 10 seconds; the annealing step was carried out at 58° C. for 30 seconds, and extension step at 72° C. for 1 minute using the applied Biosystems 7900HT fast real-time PCR system (Applied Biosystems). Sequence Detection Systems Software v2.3 was used to identify cycle threshold (Ct) values and generate gene expression curves. All data were normalized to either GAPDH expression.
Gene expression of AR targeted genes was then examined in the presence or absence of sunitinib treatment.

androgen receptor [3] = target: T1, androgen receptor (Homo sapiens, UniProt P10275); assay: AR expression by immunofluorescence in RCC cells (sunitinib, enzalutamide, combination, ±MG132); format: cell-based; details: 786-0R and UMRC2 cells
T1 construct: Baseline AR expression was high in 786-0R and UMRC2 cells; host or cells: 786-0, 786-0R, UMRC2
T1 sequence (P10275 1-920): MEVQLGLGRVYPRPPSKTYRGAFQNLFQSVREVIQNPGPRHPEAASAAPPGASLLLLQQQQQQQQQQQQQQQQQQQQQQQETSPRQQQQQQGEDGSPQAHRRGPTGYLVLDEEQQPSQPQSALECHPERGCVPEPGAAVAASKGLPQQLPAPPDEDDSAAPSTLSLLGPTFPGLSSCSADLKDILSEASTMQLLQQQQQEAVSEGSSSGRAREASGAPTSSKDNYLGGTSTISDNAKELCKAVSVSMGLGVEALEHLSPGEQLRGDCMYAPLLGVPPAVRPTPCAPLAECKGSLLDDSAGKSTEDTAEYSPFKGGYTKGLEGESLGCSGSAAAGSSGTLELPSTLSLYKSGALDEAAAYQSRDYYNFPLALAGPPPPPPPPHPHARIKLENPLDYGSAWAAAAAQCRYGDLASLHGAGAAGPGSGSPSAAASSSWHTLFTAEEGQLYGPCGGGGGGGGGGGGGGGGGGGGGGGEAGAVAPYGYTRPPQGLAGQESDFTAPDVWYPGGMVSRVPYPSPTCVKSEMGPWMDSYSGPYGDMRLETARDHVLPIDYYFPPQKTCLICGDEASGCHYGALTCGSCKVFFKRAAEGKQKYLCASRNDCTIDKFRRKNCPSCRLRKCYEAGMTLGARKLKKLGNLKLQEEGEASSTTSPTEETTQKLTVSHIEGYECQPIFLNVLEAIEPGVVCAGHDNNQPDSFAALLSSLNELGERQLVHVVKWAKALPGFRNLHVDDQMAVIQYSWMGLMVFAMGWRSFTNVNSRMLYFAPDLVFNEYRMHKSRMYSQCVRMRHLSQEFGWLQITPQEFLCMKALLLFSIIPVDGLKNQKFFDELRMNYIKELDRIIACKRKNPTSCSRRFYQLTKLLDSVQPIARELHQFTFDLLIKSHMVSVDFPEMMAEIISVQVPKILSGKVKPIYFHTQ

androgen receptor [4] = target: T1, androgen receptor; assay: AR expression by immunofluorescence in UMRC2siSPOP cells; format: cell-based; details: UMRC2siSPOP compared to UMRC2, in the presence of sunitinib
786-0 tumors = assay: 786-0 RCC tumor model in mice; format: in vivo
KLK2 [5] = assay: Human KLK2 ELISA, tissue culture supernatant; format: cell-based; details: in vitro, RCC cell lines
KLK2 [6] = assay: KLK2 serum level in RCC PDX models RP-R-02 and RP-R-02LM; format: in vivo, human; details: sunitinib acquired (RP-R-02) and intrinsic (RP-R-02LM) resistance models
KLK2 [7] = assay: KLK2 ELISA in plasma of kidney cancer patients; format: in vivo, human; details: kidney cancer patients treated with sunitinib
LNCaP cells = assay: LNCaP cell phenotype and drug activity; format: cell-based; details: sunitinib-exposed LNCaP cells
CDK1 = assay: Western blot for CDK1 in RP-R-02LM tumors treated in vivo; details: RP-R-02LM intrinsically sunitinib-resistant tumors
Text: Cells were maintained and cultured in the appropriate media, supplemented with 10% FBS and 1% penicillin and streptomycin. All cells are routinely tested and checked for the absence of mycoplasma. […] Crystal violet assay (Sigma) was used to evaluate cells growth after different time point-treatment, and absorbance was read using a spectrometer (xMarks Spectrometer, Bio-Rad). […] Six-week-old homozygous ICR, Severe Combined Immune-deficient (SCID) female mice were housed in a sterile, pathogen-free facility and maintained in a temperature controlled room, under a 12-hour light/dark schedule with water and food ad libitum. […] All mice were operated under sedation with oxygen, isoflurane and buprenorphine. When tumors were established, and reached 50 mm^2, mice were randomly grouped and placed in either control group or treatment groups (n=5-10). […] Tumor burden was assessed once a week by caliper measurement of two diameters of the tumor (L×W=mm^2) and reported as tumor volume ((L×W2)/2=mm^3). Body weights were assessed using a weighing scale and recorded in grams. Endpoint tumor weights were assessed using a weigh scale and recorded in grams. […]
Whole cell protein extracts from tissue and cell were denatured, separated on SDS-PAGE gels and transferred to nitrocellulose membranes. […] Quantitative measurements of Western blot analysis were performed using ImageJ and Graph-Pad software (Prism 7).

786-0R cells = assay: Ki67 immunofluorescence staining; format: cell-based, human; details: in the presence of sunitinib and enzalutamide
Procedure: as §1

KLK2 [8] = assay: Human KLK2 ELISA, serum of 786-0 tumor bearing mice; format: in vivo; details: 786-0 model, end-point

| SMILES | IC50 (786-0 cells) [µM] | IC50 (786-OAR cells) [µM] | IC50 for sunitinib by AR status ([1]; AR+ lines (786-0R, UMRC2, Caki2) compared to AR- lines (786-0, ACHN)) | increased gene expression of KLK2, KLK4, ZBTB16 and MYC [2] | AR expression (androgen receptor [3]) | AR expression (androgen receptor [4]) | angiogenesis (CD31 staining) (786-0 tumors; 786-0 tumors) | proliferation in vivo (Ki67 staining) (786-0 tumors; 786-0 tumors) | time when tumors became resistant to sunitinib (≥50% increase volume from nadir) (786-0 tumors; second experiment, sunitinib 40 mg/kg) [days] | KLK2 in tissue culture supernatant (KLK2 [5]) | KLK2 in serum (KLK2 [6]) | KLK2 in plasma (KLK2 [7]) | activity of enzalutamide (LNCaP cells) | CDK1 protein expression (CDK1) | cell proliferation (Ki67 staining) (786-0R cells) | cell viability, single agent ([1]; AR+ 786-0R cells) | circulating KLK2 levels (KLK2 [8]) |
| --- | --- | --- | --- | --- | --- | --- | --- | --- | --- | --- | --- | --- | --- | --- | --- | --- | --- |
| CCN(CC)CCNC(=O)c1c(C)[nH]c(/C=C2\C(=O)Nc3ccc(F)cc32)c1C [sunitinib, N-(2-Diethylaminoethyl)-5-[(Z)-(5-fluoro-2-oxo-1H-indol-3-ylidene)methyl]-2,4-dimethyl-1H-pyrrole-3-carboxamide] | 5.2 | 12.3 | higher IC50 | 2-100 fold | increased | significant increased AR expression | inhibition of angiogenesis | continued to proliferate | 45 | increased KLK2 | increased | increase of KLK2 | increased the activity of enzalutamide | increased CDK1 protein expression | – | – | – |
| CC(C)C[C@@H](C=O)NC(=O)[C@H](CC(C)C)NC(=O)[C@H](CC(C)C)NC(=O)OCc1ccccc1 [MG132] (Cbz-Leu-Leu-Leu-aldehyde) | – | – | – | – | – | – | – | – | – | – | – | – | – | – | restoration of cell proliferation | – | – |
| CNC(=O)c1ccc(N2C(=S)N(c3ccc(C#N)c(C(F)(F)F)c3)C(=O)C2(C)C)cc1F [enzalutamide, 4-(3-(4-cyano-3-(trifluoromethyl)phenyl)-5,5-dimethyl-4-oxo-2-thioxoimidazolidin-1-yl)-2-fluoro-N-methylbenzamide] | – | – | – | – | – | – | – | – | – | modulated | – | – | – | – | – | did not have a significant effect | decreased |
